Source: ChEMBL document CHEMBL5620401, “Design, synthesis, and biological evaluation of novel spirocyclic compounds as potential anti-glioblastoma agents” (Eur J Med Chem, 2023)
The source made the active and inactive calls. The calls are words filed in the database; no cut-off is given here.

Legend:
U-87 MG [1] = assay: Antiproliferative activity against human U87 cells assessed as cell viability measured after 72 hrs by MTT assay; assay type: functional, cell-based, U-87MG ATCC
U-251 [2] = assay: Antiproliferative activity against human U-251 cells assessed as cell viability measured after 72 hrs by MTT assay; assay type: functional, cell-based; conditions: for IC50: U-251, 72 h
[3] = Permeability coefficient of compound by lipid-PAMPA assay; assay type: ADME
U-87 MG [4] = assay: Antiproliferative activity against human U87 cells assessed as inhibition rate at 20 uM measured after 72 hrs by MTT assay relative to control; assay type: functional, U-87MG ATCC
U-251 [5] = assay: Antiproliferative activity against human U-251 cells assessed as inhibition rate at 20 uM measured after 72 hrs by MTT assay relative to control; assay type: functional

IC50 (U-87 MG [1]) [µM]	IC50 (U-251 [2]) [µM]	SMILES	also measured
2	1.2	COc1ccc(C(=O)/C=C/c2cccc(C(=O)N3CCN(Cc4ccccc4)C34COC4)c2)c(OC)c1OC	
3.1	2.1	O=C(/C=C/c1cccc(C(=O)N2CCN(Cc3ccccc3)C23COC3)c1)c1ccccc1	
> 10	11.6	COc1ccc(C(=O)/C=C/c2ccccc2C(=O)N2CCN(Cc3ccccc3)C23COC3)cc1	
> 10	> 10	COc1ccc(C(=O)/C=C/c2ccccc2C(=O)N2CCN(Cc3ccccc3)C23COC3)cc1OC	
7.2	6.2	O=C(/C=C/c1cccc(C(=O)N2CCN(Cc3ccccc3)C23COC3)c1)c1ccncc1	
> 50	> 50	Cn1nnc2c(C(N)=O)ncn2c1=O [TEMOZOLOMIDE]	Peff [3]: 0.002 10^-6 cm/s
3.5	1.7	COc1ccc(C(=O)/C=C/c2ccc(C(=O)N3CCN(Cc4ccccc4)C34COC4)cc2)c(OC)c1OC	
7.3	5.5	O=C(/C=C/c1ccc(C(=O)N2CCN(Cc3ccccc3)C23COC3)cc1)c1cccnc1	
		COc1cc(C(=O)CCc2ccc(C(=O)N3CCN(Cc4ccccc4)C34COC4)cc2)cc(OC)c1OC	Activity (U-251 [2]): Active
6.3	5.4	N#Cc1ccc(C(=O)/C=C/c2ccc(C(=O)N3CCN(Cc4ccccc4)C34COC4)cc2)cc1	
6.7	6.6	O=C(/C=C/c1ccc(C(=O)N2CCN(Cc3ccccc3)C23COC3)s1)c1ccncc1	
14.9	7.6	COc1cc(C(=O)/C=C/c2ccc(C(=O)N3CCN(Cc4ccccc4)C34COC4)o2)cc(OC)c1OC	
4.1	1.9	O=C(/C=C/c1ccc(C(=O)N2CCN(Cc3ccccc3)C23COC3)s1)c1ccsc1	
> 10	12.6	O=C(/C=C/c1ccc(C(=O)N2CCN(Cc3ccccc3)C23COC3)o1)c1ccsc1	
2.6	2	COc1ccc(C(=O)/C=C/c2cccc(C(=O)N3CCN(Cc4ccccc4)C34COC4)c2)cc1	
11.5	8.6	O=C(CCl)N1CCN(Cc2ccccc2)C12COC2	Papp ([3]; read-out: Peff): 23.4 ×10⁻⁶ cm/s; inhibition at 20 µM (U-87 MG [4]): 90.1%; inhibition at 20 µM (U-251 [5]): 87.7%
> 10	11	COc1ccc(C(=O)/C=C/c2ccccc2C(=O)N2CCN(Cc3ccccc3)C23COC3)c(OC)c1OC	
